Measurements as given in patent publication US12312332B2 (Merck Sharp & Dohme LLC., priority 2019, dated 2025).

Target: T1, human OX2R (Homo sapiens, UniProt O43614)
T1 construct: expressed in transfected cells; host or cells: Chinese hamster ovary (CHO) cells, kept under G418 selection
T1 sequence (O43614 1-444): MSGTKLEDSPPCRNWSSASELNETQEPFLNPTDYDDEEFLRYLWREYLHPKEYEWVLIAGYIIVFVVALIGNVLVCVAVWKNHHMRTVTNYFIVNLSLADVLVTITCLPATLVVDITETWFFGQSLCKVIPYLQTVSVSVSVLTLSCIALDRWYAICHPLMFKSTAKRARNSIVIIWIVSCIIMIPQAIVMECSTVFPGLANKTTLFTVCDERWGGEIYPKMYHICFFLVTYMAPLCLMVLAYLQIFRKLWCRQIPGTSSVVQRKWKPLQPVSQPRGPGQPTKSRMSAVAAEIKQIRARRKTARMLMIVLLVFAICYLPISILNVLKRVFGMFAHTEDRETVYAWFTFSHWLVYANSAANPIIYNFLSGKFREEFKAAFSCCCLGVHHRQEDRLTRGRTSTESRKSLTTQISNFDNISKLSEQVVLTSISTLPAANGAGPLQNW
Assay: IPOne (IP-One) orexin receptor agonist assay in CHO cells expressing human OX2R
Format: cell-based
Conditions: for EC50: CHO cells expressing human OX2R, IP-One detection, 2 hours incubation, four parameter logistic fit, read-out: OX2R Potency, EC50; for % max agonist effect (Emax): human OX2R, percentage of sample raw value/mean max effect (reference compound at 1 uM with 100% activity)

Row | Structure (SMILES) | EC50 [nM] | % max agonist effect (Emax) [%]
1 | CS(=O)(=O)N[C@H]1CCN(c2ncccc2F)[C@H]1CO[C@H]1CC[C@@H](c2ccccc2)CC1 [Example 131, N-((2R,3S)-1-(3-fluoropyridin-2-yl)-2-((((CIS)-4-phenylcyclohexyl)oxy)methyl)pyrrolidin-3-yl)methanesulfonamide] | 736 | 98.8
2 | CS(=O)(=O)N[C@H]1CCN(c2ccc(C#N)cn2)[C@H]1CO[C@H]1CC[C@@H](c2ccccc2)CC1 [Example 132, N-((2R,3S)-1-(5-cyanopyridin-2-yl)-2-((((CIS)-4-phenylcyclohexyl)oxy)methyl)pyrrolidin-3-yl)methanesulfonamide] | > 10000 | 75.3
3 | CS(=O)(=O)N[C@H]1CCN(c2cncc(C#N)c2)[C@H]1CO[C@H]1CC[C@@H](c2ccccc2)CC1 [Example 133, N-((2R,3S)-1-(5-cyanopyridin-3-yl)-2-((((CIS)-4-phenylcyclohexyl)oxy)methyl)pyrrolidin-3-yl)methanesulfonamide] | 993 | 100.3
4 | CS(=O)(=O)N[C@H]1CCN(c2ccc[n+]([O-])c2)[C@H]1CO[C@H]1CC[C@@H](c2ccccc2)CC1 [Example 134] | 20.7 | 101.7
5 | CS(=O)(=O)N[C@H]1CCN(c2ncccc2O)[C@H]1CO[C@H]1CC[C@@H](c2ccccc2)CC1 [Example 135, N-((2R,3S)-1-(3-hydroxypyridin-2-yl)-2-((((CIS)-4-phenylcyclohexyl)oxy)methyl)pyrrolidin-3-yl)methanesulfonamide] |  | 101.1
6 | CS(=O)(=O)N[C@H]1CCN(c2ncccc2C#N)[C@H]1CO[C@H]1CC[C@@H](c2ccccc2)CC1 [Example 136, N-((2R,3S)-1-(3-cyanopyridin-2-yl)-2-((((CIS)-4-phenylcyclohexyl)oxy)methyl)pyrrolidin-3-yl)methanesulfonamide] | 164 | 100.6
7 | CS(=O)(=O)N[C@H]1CCN(c2ncccc2O)[C@H]1CO[C@H]1CC[C@@H](c2ccccc2)CC1 [Example 137, N-((2R,3S)-1-(3-hydroxypyridin-2-yl)-2-((((CIS)-4-phenylcyclohexyl)oxy)methyl)pyrrolidin-3-yl)methanesulfonamide] |  | 100.5
8 | CS(=O)(=O)N[C@H]1CCN(c2cc(C#N)ccn2)[C@H]1CO[C@H]1CC[C@@H](c2ccccc2)CC1 [Example 138, N-((2R,3S)-1-(4-cyanopyridin-2-yl)-2-((((CIS)-4-phenylcyclohexyl)oxy)methyl)pyrrolidin-3-yl)methanesulfonamide] | 72.1 | 99.8
9 | CS(=O)(=O)N[C@H]1CCN(c2cccc(C#N)n2)[C@H]1CO[C@H]1CC[C@@H](c2ccccc2)CC1 [Example 139, N-((2R,3S)-1-(6-cyanopyridin-2-yl)-2-((((CIS)-4-phenylcyclohexyl)oxy)methyl)pyrrolidin-3-yl)methanesulfonamide] | 1400 | 68.5
10 | CS(=O)(=O)N[C@H]1CCN(c2cc(OC(F)F)c(F)cn2)[C@H]1CO[C@H]1CC[C@@H](c2ccccc2)CC1 [Example 140, N-((2R,3S)-1-(4-(difluoromethoxy)-5-fluoropyridin-2-yl)-2-((((CIS)-4-phenylcyclohexyl)oxy)methyl)pyrrolidin-3-yl)methanesulfonamide] | 299 | 98.8
11 | COc1cccnc1N1CC[C@H](NS(C)(=O)=O)[C@@H]1CO[C@H]1CC[C@@H](c2ccccc2)CC1 [Example 141, N-((2R,3S)-1-(3-methoxypyridin-2-yl)-2-((((CIS)-4-phenylcyclohexyl)oxy)methyl)pyrrolidin-3-yl)methanesulfonamide] | 7.1 | 100.2
12 | CS(=O)(=O)N[C@H]1CCN(c2cc(C(F)F)cc(C(F)F)n2)[C@H]1CO[C@H]1CC[C@@H](c2ccccc2)CC1 [Example 142, N-((2R,3S)-1-(4,6-bis(difluoromethyl)pyridin-2-yl)-2-((((CIS)-4-phenylcyclohexyl)oxy)methyl)pyrrolidin-3-yl)methanesulfonamide] | > 10000 | 15.8
13 | CS(=O)(=O)N[C@H]1CCN(c2cc(C(F)F)ccn2)[C@H]1CO[C@H]1CC[C@@H](c2ccccc2)CC1 [Example 143, N-((2R,3S)-1-(4-(difluoromethyl)pyridin-2-yl)-2-((((CIS)-4-phenylcyclohexyl)oxy)methyl)pyrrolidin-3-yl)methanesulfonamide] | 1820 | 95.6
14 | Cc1ccnc(N2CC[C@H](NS(C)(=O)=O)[C@@H]2CO[C@H]2CC[C@@H](c3ccccc3)CC2)c1 [Example 144, N-((2R,3S)-1-(4-methylpyridin-2-yl)-2-((((CIS)-4-phenylcyclohexyl)oxy)methyl)pyrrolidin-3-yl)methanesulfonamide] | 794 | 98
15 | CS(=O)(=O)N[C@H]1CCN(c2ccc(C#N)nc2)[C@H]1CO[C@H]1CC[C@@H](c2ccccc2)CC1 [Example 145, N-((2R,3S)-1-(6-cyanopyridin-3-yl)-2-((((CIS)-4-phenylcyclohexyl)oxy)methyl)pyrrolidin-3-yl)methanesulfonamide] | 9.8 | 100.6
16 | COc1cccc(N2CC[C@H](NS(C)(=O)=O)[C@@H]2CO[C@H]2CC[C@@H](c3ccccc3)CC2)c1 [Example 146, N-((2R,3S)-1-(3-methoxyphenyl)-2-((((CIS)-4-phenylcyclohexyl)oxy)methyl)pyrrolidin-3-yl)methanesulfonamide] | 1830 | 84.6
17 | CS(=O)(=O)N[C@H]1CCN(c2cccc(C#N)c2)[C@H]1CO[C@H]1CC[C@@H](c2ccccc2)CC1 [Example 147, N-((2R,3S)-1-(3-cyanophenyl)-2-((((CIS)-4-phenylcyclohexyl)oxy)methyl)pyrrolidin-3-yl)methanesulfonamide] | > 10000 | 74.1
18 | CS(=O)(=O)N[C@H]1CCN(c2cccc(=O)[nH]2)[C@H]1CO[C@H]1CC[C@@H](c2ccccc2)CC1 [Example 148, N-((2R,3S)-1-(6-oxo-1,6-dihydropyridin-2-yl)-2-((((CIS)-4-phenylcyclohexyl)oxy)methyl)pyrrolidin-3-yl)methanesulfonamide] | 163 | 99.3
19 | CS(=O)(=O)N[C@H]1CCN(c2cncc(O)n2)[C@H]1CO[C@H]1CC[C@@H](c2ccccc2)CC1 [Example 149, N-((2R,3S)-1-(6-hydroxypyrazin-2-yl)-2-((((CIS)-4-phenylcyclohexyl)oxy)methyl)pyrrolidin-3-yl)methanesulfonamide] | 258 | 97.7
